Nine molecules from US10072011B2, “Substituted bridged urea analogs as sirtuin modulators” (GlaxoSmithKline Intellectual Property (No.2) Limited, priority 2014, dated 2018) can be followed below.

Read-outs that look alike come from different tables or passages of the source.

The experiment concerns the target T1, SIRT1 (Homo sapiens, UniProt Q96EB6).
T1 sequence (Q96EB6 1-747): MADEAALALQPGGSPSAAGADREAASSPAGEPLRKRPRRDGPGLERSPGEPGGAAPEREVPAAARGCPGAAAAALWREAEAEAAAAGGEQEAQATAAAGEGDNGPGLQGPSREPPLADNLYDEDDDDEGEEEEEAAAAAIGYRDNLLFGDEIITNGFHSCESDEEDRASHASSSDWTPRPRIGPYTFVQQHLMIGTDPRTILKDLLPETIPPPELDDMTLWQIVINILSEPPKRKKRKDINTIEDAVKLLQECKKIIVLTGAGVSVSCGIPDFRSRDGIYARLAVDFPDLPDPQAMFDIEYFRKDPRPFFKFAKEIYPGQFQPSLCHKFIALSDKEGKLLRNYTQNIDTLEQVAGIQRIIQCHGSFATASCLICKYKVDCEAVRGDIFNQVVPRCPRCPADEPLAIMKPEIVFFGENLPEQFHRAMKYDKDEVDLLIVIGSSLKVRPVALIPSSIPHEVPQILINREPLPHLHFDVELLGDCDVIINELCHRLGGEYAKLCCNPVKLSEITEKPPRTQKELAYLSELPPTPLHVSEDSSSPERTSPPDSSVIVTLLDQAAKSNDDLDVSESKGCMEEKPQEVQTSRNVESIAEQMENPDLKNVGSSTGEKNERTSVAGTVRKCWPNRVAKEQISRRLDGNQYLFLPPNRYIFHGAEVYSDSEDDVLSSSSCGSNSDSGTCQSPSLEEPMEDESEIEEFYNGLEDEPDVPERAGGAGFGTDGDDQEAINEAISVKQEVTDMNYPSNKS
The experiment can be described thus: Trp mass spectrometry assay of SIRT1 activation (Ac-R-H-K-K(Ac)-W-NH2 peptide). The format is biochemical. The following applies: for Emax: 25 min, read-out: TRP MAX RESP (percent maximum fold activation). The procedure, abridged: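 N-terminal His-tagged human SIRT1, expressed in BL21(DE3) and purified, was incubated 25 min with an acetylated Trp peptide and NAD plus test compound at varying concentrations, then quenched with formic acid. OAADPR or deacetylated peptide was quantified by mass spectrometry versus compound-free control; EC1.5 is the concentration giving 50% activity increase, with percent maximum activation.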

The mark [1] stands for this setting: Trp peptide 0.5 μM, 120 μM βNAD+, 10 nM SIRT1, 25 min at 25° C.
[2] abbreviates: Trp peptide 0.5 μM, 120 μM βNAD+, 10 nM SIRT1, 25 min at 25° C., relative to control (100%).

As to `Cn1nccc(NC(=O)N2c3nc(C(=O)NCC(F)(F)F)ccc3N3CC[C@H]2C3)c1=O` [Example 121, (4S)—N5-(2-methyl-3-oxo-2,3-dihydropyridazin-4-yl)-N7-(2,2,2-trifluoroethyl)-3,4-dihydro-1,4-methanopyrido[2,3-b][1,4]diazepine-5,7(2H)-dicarboxamide], the Emax is above 150%. Besides, the “TRP Activity (EC1.5, concentration of test compound that results in 150% activation of SIRT1)” value under setting [1] is recorded as “A (EC1.5<1 μM)”.
`Cc1cc(C(=O)NCC(F)(F)F)nc2c1N1CC[C@@H](C1)N2C(=O)Nc1cc(OC[C@H](O)CO)ccn1` [Example 294, (4S)—N5-(4-((R)-2,3-dihydroxypropoxy)pyridin-2-yl)-9-methyl-N7-(2,2,2-trifluoroethyl)-3,4-dihydro-1,4-methanopyrido[2,3-b][1,4]diazepine-5,7(2H)-dicarboxamide]: under setting [2], the Emax is below 150%. Moreover, under setting [1], the “TRP Activity (EC1.5, concentration of test compound that results in 150% activation of SIRT1)” value is on record as “A (EC1.5<1 μM)”.
In the same order, the values of `COCC(NC(=O)c1ccc2c(n1)N(C(=O)Nc1ccccn1)[C@H]1CCN2C1)C(F)(F)F` (stereo partly drawn) [Example 9, (4S)—N-5-(pyridin-2-yl)-N-7-(1,1,1-trifluoro-3-methoxypropan-2-yl)-3,4-dihydro-1,4-methanopyrido[2,3-b][1,4]diazepine-5,7(2H)-dicarboxamide] are above 150% and “A (EC1.5<1 μM)”.
In the same order, the values of `O=C(NCC(F)(F)F)c1ccc2c(n1)N(C(=O)Nc1cc(-c3cnco3)ccn1)[C@H]1CCN2C1` [Example 83, (4S)—N5-(4-(oxazol-5-yl)pyridin-2-yl)-N7-(2,2,2-trifluoroethyl)-3,4-dihydro-1,4-methanopyrido[2,3-b][1,4]diazepine-5,7(2H)-dicarboxamide] are above 150% and “A (EC1.5<1 μM)”.
In the same order, the values of `COC(=O)CNC(=O)c1ccc2c(n1)N(C(=O)Nc1ccccn1)[C@H]1CCN2C1` [Example 12] are above 150% and “B (EC1.5 1-25 μM)”.
`O=C(NCc1cscn1)c1ccc2c(n1)N(C(=O)Nc1cc(OC[C@H](O)CO)ccn1)[C@H]1CCN2C1` [Example 199, (4S)—N5-(4-((R)-2,3-dihydroxypropoxy)pyridin-2-yl)-N7-(thiazol-4-ylmethyl)-3,4-dihydro-1,4-methanopyrido[2,3-b][1,4]diazepine-5,7(2H)-dicarboxamide]: the Emax under setting [2] is above 150%. Moreover, the “TRP Activity (EC1.5, concentration of test compound that results in 150% activation of SIRT1)” value under setting [1] is “B (EC1.5 1-25 μM)”.
In the same order, the values of `C[C@@H](NC(=O)c1ccc2c(n1)N(C(=O)Nc1cc(-c3nn[nH]n3)ccn1)[C@H]1CCN2C1)C(F)(F)F` [Example 308, (4S)—N5-(4-(2H-tetrazol-5-yl)pyridin-2-yl)-N7-((R)-1,1,1-trifluoropropan-2-yl)-3,4-dihydro-1,4-methanopyrido[2,3-b][1,4]diazepine-5,7(2H)-dicarboxamide] are below 150% and “A (EC1.5<1 μM)”.
As for `NC(CNC(=O)c1ccc2c(n1)N(C(=O)Nc1cc(OC[C@H](O)CO)ccn1)[C@H]1CCN2C1)C(F)(F)F` (single isomer, unassigned) [Example 317], the “TRP Activity (EC1.5, concentration of test compound that results in 150% activation of SIRT1)” value under setting [1] was “B (EC1.5 1-25 μM)”. Besides, under setting [2], the “TRP MAX RESP (percent maximum fold activation)” value is listed as “B (Fold Activation<150%)”.
For the molecule `O=C(NC[C@H](O)C(F)(F)F)c1ccc2c(n1)N(C(=O)Nc1ccccn1)[C@H]1CCN2C1` [Example 52, (4S)—N5-(pyridin-2-yl)-N7-((S)-3,3,3-trifluoro-2-hydroxypropyl)-3,4-dihydro-1,4-methanopyrido[2,3-b][1,4]diazepine-5,7(2H)-dicarboxamide], under setting [2], the Emax was above 150%. Further, under setting [1], the “TRP Activity (EC1.5, concentration of test compound that results in 150% activation of SIRT1)” value was “A (EC1.5<1 μM)”.
